Values joined by “and” are separate entries in the source; they are usually repeats but may differ in a detail not shown here. Equal values may be shown once.
Test system: HEK cells stably expressing αS-A53T-YFP
Experiment: HEK cells treated with 5th cycle PMCA samples (ProteoStat, confocal)
Format: cell-based, human
Description: To further validate that NS132 generates fiber incompetent structures from the fibers-catalyzed aggregation, we utilized HEK cells that stably express αS-A53T-YFP[24],[51]–[54]. The solutions of αS aggregation in the absence and presence of NS132 from the 5th cycle of PMCA (2 μM in monomeric αS, ±NS132) were introduced to the HEK cells in the presence of Lipofectamine 3000 for 24 h. In contrast to the control (no fibers) (Fig. 3i, control), we observed a significant number of inclusions of αS-A53T-YFP protein in the presence of αS fibers (Fig. 3i, αS, white arrows). […] In contrast, in the presence of the PMCA assay sample from the 5th cycle ( + NS132), there was a significant reduction in the number of αS-A53T-YFP inclusions (Fig. 3i, +NS132). The ProteoStat intensity of inclusions in HEK cells treated with the PMCA sample from cycle five was ~2–3 fold higher than the control condition (no fibers) (Fig. 3j, black). […]
This assay was performed based on a previous protocol with slight modifications. […] The resulting cell pellets were then homogenized, transferred into an autoclaved 1.7 mL microcentrifuge tube, and counted to normalize the data. […] The cell solution was homogenized and equally aliquoted into the desired number of wells in a Costar 96-well flat black plate and fluorescence was measured (λex = 550 nm, λem = 600 nm) on an Infinite M200 Pro Plate Reader. […]

With `Cc1ccc(NC(=O)c2ccc(NC(=O)c3ccc([N+](=O)[O-])c(NCCc4c[nH]c5ccccc45)n3)c(NCC3CCCCC3)n2)c(OCC(=O)O)n1` [NS132] the “ProteoStat dye intensity (raw), individual experiments” value (HEK cells + fifth cycle PMCA sample (2 μM αS in monomer) with NS132) was 1001 and 1176 and 997 and 1009 and 1031 and 978 and 1091 and 1123 and 1010 and 1092 and 1179 and the “ProteoStat intensity of inclusions, in words” value (PMCA sample from cycle five in the presence of NS132) was “significantly lower”.

From paper PMC11061149, “Protein mimetic 2D FAST rescues alpha synuclein aggregation mediated early and post disease Parkinson’s phenotypes” (Nature Communications, 2024)
